# Legend:
# [1] = test system: breast cancer cells; assay: GC7 potency after induction of EMT by TGFβ; format: cell-based; conditions: induction of EMT by TGFβ treatment
# [2] = test system: 4T1, 67NR, MCF10AT1k, MCF10CA1h and MCF10CA1a; assay: Cell viability at 100 μM GC7, phase-contrast imaging across cell lines; format: cell-based, mouse, human; conditions: 100 μM GC7, 48 hours
# Experimental: There are currently two drugs available that can target the activation of eIF5A. Its role of hypusination/activation is spermidine dependent and is carried out in two subsequent steps by the enzymes deoxyhypusine synthase (DHPS) catalyzing the first step and deoxyhypusine hydroxylase (DOHH) catalyzing the second step. The efficacy and potency of the two drugs in the selected cell lines; GC7 (N1-Guanyl-1,7-diaminoheptane)—a selective inhibitor of DHPS, and CPX (Ciclopirox olomine)—which chelates iron that is important for the activity of DOHH (FIG. 2A) are shown. The concentration that determines a 50% decrease in cell viability is noted by the IC50 values on each graph for each drug. These cells were imaged when treated with the second highest concentration of GC7 at 100 μM to show a decrease in cell viability after 48 hours of treatment (FIG. 2B). […] From this point forward, all experiments performed used only GC7 as the selected drug to target hypusinated eIF5A.
# The inventors sought to determine if the decrease in cell viability is due to the inhibition of post translational modification of eIF5A. To test this, all cell lines were treated with GC7 at 100 μM for 48 hours—which were the time point and concentration at which a decrease in cell viability was seen (FIG. 2B). […]
# [3] = test system: eIF5A localization in MDA-MB-468 cells; assay: Immunofluorescence, subcellular localization of total eIF5A; format: cell-based, human; conditions: 1 and 10 μM GC7, 48 hours
# Experimental: (§1) Thus, we interrogated the subcellular localization of eIF5A protein using immunofluorescent staining under control as well as 1 and 10 μM GC7 treatment conditions in triple negative breast cancer lines (FIGS. 12A and 12B).
# (§2) Cells were plated at 1e4 cells/mL at 4 mL in a 6-well plate containing a sterile glass coverslip and allowed to attach overnight. Cells were then treated with appropriate inhibitors at indicated concentrations and time-points. Cells were first fixed using 4% paraformaldehyde for 20 minutes. Cells were then subjected to Triton-X to permeabilize the cells before treatment with specific antibodies in 2% BSA in PBS. After primary antibody incubation for 90 minutes, cells were washed with PBS three times before incubating with secondary antibodies in 2% BSA in PBS for 1 hour. Cells were again washed with PBS three times before set overnight staining with DAPI. Cells were then imaged using a Leica DMI6000 inverted microscope at 100× magnification.
# [4] = test system: eIF5A localization in MCF10CA1h cells; assay: as above; format: cell-based, human; conditions: 1 and 10 μM GC7, 48 hours
# Experimental: as §1, §2
smiles,measurement,setting,value
"N=C(N)NCCCCCCCN.O=S(=O)(O)O [GC7, N1-Guanyl-1,7-diaminoheptane]",GC7 potency after TGFβ-induced EMT,[1],increases GC7 potency
same,decrease in cell viability,[2],largest decrease in cell viability
same,nuclear depletion of eIF5A,[3],this change was significant only in the case of MDA-MB-468 cells
same,nuclear depletion of eIF5A,[4],Nuclear depletion of eIF5A was observed
